Source: patent US20030181434A1, “AlphaAED and betaAED regulation of nuclear transcription, gene regulation, and/or gene expression” (priority 2002, published 2003)

Tests used:
[1] = system: PPARγ; assay: Western blot of PPARγ level in Dunning R3327 AT-1 rat prostate tumors after treatment; assay type: in vivo; conditions: untreated control = 100 R.A.U.
Excerpt: (§1) Dunning R3327, AT-1, rat prostate cancer, is a completely hormone-refractory tumor cell line. […] It lacks measurable quantities of receptor for androgens and estrogens. The clinical behavior of this tumor is not influenced by presence or absence of sex steroids (Isaacs et al, Prostate 9:261-281 (1986)).
(§2) After an initial passage in young male rats, the tumor was implanted dorsally into young intact (not castrated) male Copenhagen-Fischer rats (Copenhagen, Denmark) of approximately 250 grams. Tumor transplants were allowed to grow until palpable and visible and reached a mean size of 10 mm in diameter prior to treatment. The vehicle for the drug was Polyethylene glycol 400 and ethanol 1:1. The drug was injected adjacent to the tumor. […]
(§3) Thawed tumors were homogenized in ice cold lysis-buffer (160 mM NaCl, 10 mM […], 2 mM […], 0.5% Triton X-100, 100 μg/ml phenylmetylsulfonyl fluoride, 1 μg/ml leupeptin and 2 μg/ml aprotinin), placed on ice for 15 minutes and following clarification centrifuged for 10 minutes at 13,000 g. Protein content of homogenates were determined by Lowry assay Q.
(§4) Protein in lysates ([…]) were separated by electrophoresis using 8% SDS-PAGE, the isolated proteins were transferred onto a nitrocellulose membrane (Amersham) in a trans-blot electrophoretic transfer cell (Bio-Rad Laboratories). […] Optical density was measured densitometrically. […]

[2] = system: COX-2; assay: Western blot of COX-2 level in Dunning R3327 AT-1 rat prostate tumors after treatment; assay type: in vivo; conditions: untreated control = 100 R.A.U.
Excerpt: as §1, §2, §3, §4

[3] = system: NF-κB
Excerpt: as §1, §2, §3, §4

[4] = AT-1 tumor samples, 96 hours after single 10 mg dose injected adjacent to tumor
[5] = AT-1 tumor samples at 19 days, βAED single 80 mg dose, or αAED 10 mg then βAED 80 mg after 96 hours

Row | SMILES | PPARγ level, mean value [1, 4] [R.A.U.] | COX-2 level, mean value [2, 4] [R.A.U.] | effect on levels of NF-κB (in words) ([3]; finding stated in the description, no value given) | PPARγ level, mean value [1, 5] [R.A.U.] | COX-2 level, mean value [2, 5] [R.A.U.] | NF-κB level, mean value ([3]; AT-1 tumor samples at 19 days after single 80 mg dose, untreated control = 100 R.A.U.) [R.A.U.]
1 | C[C@]12CC[C@H]3[C@@H](CC=C4C[C@@H](O)CC[C@@]43C)[C@@H]1CC[C@H]2O [αAED, Δ5-Androstene-3β, 17α-diol] | 190 | 203 | increases |  |  | 
2 | C[C@]12CC[C@H]3[C@@H](CC=C4C[C@@H](O)CC[C@@]43C)[C@@H]1CC[C@@H]2O [βAED, Δ5-Androstene-3β, 17β-diol] |  |  |  | 47 | 135 | 68±13.6
